How the values were obtained:
[1] = molecular target: T1, CDK4/Cyclin D1 (Homo sapiens, UniProt P11802); test: cell-free […]-ATP kinase assay, P81 phosphocellulose plate; format: biochemical; settings: read-out: 40 μM
[2] = molecular target: T1, CDK4/Cyclin D1; test: as above; format: biochemical

T1 sequence (P11802 2-303): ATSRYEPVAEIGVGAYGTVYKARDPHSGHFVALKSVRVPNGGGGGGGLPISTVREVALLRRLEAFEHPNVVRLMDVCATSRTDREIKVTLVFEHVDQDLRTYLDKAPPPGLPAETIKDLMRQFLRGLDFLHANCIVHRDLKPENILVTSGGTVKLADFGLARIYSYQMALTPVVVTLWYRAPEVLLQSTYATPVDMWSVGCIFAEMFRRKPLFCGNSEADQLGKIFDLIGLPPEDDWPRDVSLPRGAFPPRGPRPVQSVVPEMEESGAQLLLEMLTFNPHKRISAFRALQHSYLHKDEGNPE
T1 sequence (P24385 whole entry partner): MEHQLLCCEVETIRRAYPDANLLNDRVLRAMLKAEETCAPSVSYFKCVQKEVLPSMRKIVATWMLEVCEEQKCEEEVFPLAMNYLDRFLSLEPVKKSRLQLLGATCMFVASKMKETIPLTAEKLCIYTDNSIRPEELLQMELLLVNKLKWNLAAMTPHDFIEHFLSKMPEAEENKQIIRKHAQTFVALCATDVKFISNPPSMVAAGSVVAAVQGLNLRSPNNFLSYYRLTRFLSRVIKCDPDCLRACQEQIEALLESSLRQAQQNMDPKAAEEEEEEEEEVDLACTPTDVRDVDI

Row | SMILES | activity at 40 µM [1] [%] | IC50 [2] [µM]
1 | CC(C)=CCc1c(O)c(CC=C(C)C)c2oc3c(O)cccc3c(=O)c2c1O [8-desoxygartanin] | 81.4 ± 6.38 | –
2 | COc1c(O)cc2oc3cc4c(c(O)c3c(=O)c2c1CC=C(C)C)CCC(C)(C)O4 [3-isomangostin] | – | 15.6
3 | CC(C)=CCc1c(O)c(CC=C(C)C)c2oc3c(O)ccc(O)c3c(=O)c2c1O [gartanin] | 80.2 ± 10.2 | –
4 | COc1c(O)cc2oc3cc(O)c(CC=C(C)C)c(O)c3c(=O)c2c1CCC(C)(C)O [garcinone D] | – | 12.8
5 | CC(C)=CCc1c(O)cc2oc3cc(O)c(O)c(CCC(C)(C)O)c3c(=O)c2c1O [garcinone C] | 65.7 ± 7.94 | –

Further lines, results first:

Row | activity at 40 µM [1] [%] | IC50 [2] [µM] | SMILES
6 | 55 ± 2.88 | – | COc1cc2oc3cc(O)c(OC)c(CC=C(C)C)c3c(=O)c2c(O)c1CC=C(C)C [β-mangostin]
7 | – | 8.5 | COc1c(O)cc2oc3cc(O)c(CC=C(C)C)c(O)c3c(=O)c2c1CC=C(C)C [α-mangostin]
8 | – | 6.2 | CC(C)=CCc1c(O)cc2oc3cc(O)c(O)c(CC=C(C)C)c3c(=O)c2c1O [γ-mangostin]

Source: publication PMC6667231 (International journal of nutrition, 2019)
